The results in this text go back to publication PMC12668304, “A Triple Threat Against Ovarian Cancer: Os(II)‐Pt(IV)‐Ceritinib Conjugates for Photodynamic Therapy, Chemotherapy, and Immunogenic Cell Death Induction” (Angewandte Chemie (International Ed. in English), 2025).

Where two headings read alike, the source gives them in different places.

Test [1] has as its system A2780 MCTSs. The experiment in a line: (Photo-)cytotoxicity on 3D multicellular tumour spheroids, resazurin assay. It counts as cell-based, human. To be noted: for IC50: normoxic, one week of incubation. On the procedure: A2780 spheroids (ca. 500 µm in diameter) were treated with increasing concentrations of the compounds and after 24 h of incubation, the medium was replaced with fresh medium, and the cells were either kept in the dark or irradiated for 1 h at 740 nm. Images of the spheroids were taken every 24 h for 3 days.
Additionally, the phototoxicity was tested via a fluorometric resazurin assay in A2780 MCTSs (Table 3). […] (Figure S29). […] This can be attributed to the different biological endpoints and time frames of the assays: spheroid diameter was monitored over 72 h, whereas resazurin measurements were performed after 7 days, potentially capturing delayed cytotoxic effects due to differences in drug cellular uptake.
4 h of incubation, the conversion of resazurin into resorufin was determined upon excitation at 540 nm and measurement of its emission at 590 nm using a Cytation 5 Imaging Reader from BioTek. The obtained data was analysed with the GraphPad Prism software
MCTS were cultured using ultra-low attachment 96 wells plates from Corning (Fisher Scientific 15329740). A2780 cells were seeded at a density of 1,500 cells per well in 100 μL of RPMI. Within 2-3 days, MCTSs have approximately 500 μm of diameter. The formation as well as integrity and diameter of the MCTSs were monitored by microscopy.
(Photo-)cytotoxicity on 3D multicellular tumor spheroids (MCTS)
After 2 days of growing at 37 °C in 5% CO2, the medium was removed, and MCTSs were treated by adding 100 μL of the medium in the well with increasing concentrations of compounds (Os-Pt-Cer, Os, Ceritinib, Oxaliplatin, cisplatin, and Ce6 as additional control). For untreated reference MCTSs, only half of the medium was added with fresh medium. After 24 hours, the MCTSs were divided into two identical groups. The first group was strictly kept in the dark. The second group was irradiated at 740 nm for 1 h (12.60 J·cm-2) using a LUMOS-BIO photoreactor (Atlas Photonics). After the irradiation, all groups were incubated additional 7 days. Thereafter, medium was replaced with 100 μL of fresh medium containing resazurin (0.2 mg/mL). After 24 h of incubation at 37 °C, 5% CO 2, plates were read using a SpectraMaxM2 Microplate Reader ( λexc = 540 nm; λread = 590 nm). Fluorescence data were normalised, and data were fitted using GraphPad Prism Software, and IC 50 was calculated by non - linear regression. Changes in the size and shape of MCTS were monitored every 24 h using Cytation 5 Imaging Reader from BioTek, objective x4. […]
Figure S29. Cell viability graphs after one week of incubation. Studied compounds were incubated for 24 h, thereafter the medium was renovated. For PDT, plates were irradiated at 740 nm for 1h using a LUMOS-BIO photoreactor (Atlas Photonics). For both PDT and regular cytotoxicity, cells were incubated for one week at 37 °C, 5 % CO2. The medium was renovated each two days. Then, the medium was replaced with 100 µL of fresh medium containing 0.2 mg/mL resazurin (Acros Organics). After 24 h of incubation, the fluorescence signal of the resazurin product was recorded (λexc = 540 nm; λem = 590 nm) using a Cytation 5 Cell Imaging Multi-Mode Reader (Biotek - Agilent).
(1 picture or pasted object on this page, not shown here)
On the technique in general: Resazurin is reduced to fluorescent resorufin, in cell work by metabolically active cells.

In test [2] the test system is MCA205 cells. The experiment in a line: (Photo-)cytotoxicity on 2D cell monolayers, resazurin assay. Conditions: for IC50: MCA205, normoxic, 4 h exposure. It counts as cell-based, mouse. The method, then: The 2D cytotoxicity and phototoxicity profiles of Os‐Pt‐Cer and controls, were evaluated in a panel of cancerous cell lines, including A2780 (ovarian carcinoma), A549 (non‐small cell lung carcinoma), and MCA205 (murine fibrosarcoma), as well as a non‐cancerous retinal pigment epithelial cell line (RPE‐1). Cells were treated with the compounds (0.003–100 µM) for 4 h, either kept in the dark or irradiated at 670 nm (13.5 J cm^− ^2) (Table S4 and Figure S22) or 740 nm (12.6 J cm^− ^2) and viability was assessed 44 h post‐treatment. To verify robustness, the incubation was extended to 72 h. […]
Human ovarian cancer (A2780) cells and mouse fibrosarcoma cells (MCA205) were cultured in RPMI media. Retinal pigment epithelium (RPE -1) cells were cultured in DMEM/F -12 medium. Lung cancer cells (A549) were cultured in F -12K medium. These cell lines were complemented with 10% of fetal bovine serum, 100 U/mL penicillin -streptomycin mixture, and maintained in a humidified atmosphere […]
(Photo-)cytotoxicity on 2D cell monolayers
The cytotoxicity of the compounds was assessed by measuring cell viability using a resazurin assay.
The cells were seeded in triplicates in 96 well plates with a density of 10 4 cells per well in 100 μL of media. After 24 h, the medium was removed, and the cells were treated with increasing concentrations (0.003 → 100 µM) of the compounds diluted in cell media , achieving a total volume of 100 μL/well.
The cells were incubated with the compound for 4 h (final incubation time 48 h) or 24 h (final incubation time 72 h). After this time, the media was removed and replaced with 100 μL of fresh medium. For the phototoxicity studies, the cells were exposed to light with an Atlas Photonics LUMOS BIO irradiation system. Each well was constantly irradiated at 670 nm (60 min, 13.50 J·cm-2) or 740 nm (60 min, 12.60 J·cm-2). During the irradiation, the temperature of the plate was maintained at 37 °C. The cells were grown in the incubator for an additional 44 or 48 h, respectively. For the determination of the dark cytotoxicity, the cells were not irradiated and after the medium exchange directly incubated for 44 h.
After this time, the medium was replaced with fresh medium containing resazurin (0.2 mg/mL). After […]
4 h of incubation, the conversion of resazurin into resorufin was determined upon excitation at 540 nm and measurement of its emission at 590 nm using a Cytation 5 Imaging Reader from BioTek. The obtained data was analysed with the GraphPad Prism software […]
After 24 h of incubation at 37 °C, 5% CO 2, plates were read using a SpectraMaxM2 Microplate Reader ( λexc = 540 nm; λread = 590 nm). Fluorescence data were normalised, and data were fitted using GraphPad Prism Software, and IC 50 was calculated by non - linear regression. Changes in the size and shape of MCTS were monitored every 24 h using Cytation 5 Imaging Reader from BioTek, objective x4.
Intracellular distribution by confocal fluorescence microscopy
10^4 cells/well (A2780 cells) were seeded in complete medium (RPMI) in µ -slide 8 well (Ibidi) (100 µl/well) and left for 24 h to attach to the bottom. Then, the culture medium was removed , and 100 µl of solution of the corresponding complexes (5 µM) was added. The complexes were incubated with the cells for 4 hours. Thereafter, the medium was removed and replaced by RPMI without phenol red , and Hoechst and MitoTracker Green were added at a final concentration of 1 µg/mL. They were incubated with the cells for 30 min in the dark at 37 °C. Images were collected in a sequential mode in a Leica TCS SP8 confocal microscope with a 60x oil immers ion objective, a line average of 4, and a format of […]
(MTG)→ 500 -550nm, and 488 nm (complexes)→ 680 -730 nm. The confocal pinhole was 1 Airy unit.
Images were analysed with LAS X Flim FCS software.
Intracellular distribution by ICP -MS

Where [3] appears, read: Homo sapiens, 168 h, dark, read-out: IC50 Dark.
[4] abbreviates: Mus musculus, MCA-205, dark, total 48 h incubation, read-out: IC50 Dark.

On to `Cc1cc(Nc2ncc(Cl)c(Nc3ccccc3S(=O)(=O)C(C)C)n2)c(OC(C)C)cc1C1CCNCC1` [Ceritinib], for which the IC50 (commonly the concentration needed to halve the response being measured) was above 5000 nM in test [1] (setting [3]) and 6970 ± 700 nM in test [2] (setting [4]).
Regarding `O=C1[O][Pt]2([NH][C@@H]3CCCC[C@H]3[NH]2)[O]C1=O` [Oxaliplatin], the IC50 in test [1] (dark, read-out: IC50 Dark) was 500 ± 700 nM; in test [2] (dark, total 48 h incubation, read-out: IC50 Dark) it was 800 ± 90 nM.
Compound `C=Cc1c(C)c2cc3nc(c(CC(=O)O)c4[nH]c(cc5nc(cc1[nH]2)C(C)=C5CC)c(C)c4C(=O)O)[C@@H](CCC(=O)O)[C@@H]3C` [Ce6, Chlorin e6] registered a PI in test [1] of at least 7. Further, the IC50 in test [1] (setting [3]) was above 5000 nM; in test [1] (Homo sapiens, 740 nm (60 min, 12.60 J·cm^−2), read-out: IC50 Irrad. 740 nm) it was 700 ± 400 nM; in test [2] (Mus musculus, MCA-205, 740 nm (60 min, 12.60 J·cm^−2), total 48 h, read-out: IC50 Irrad. 740 nm) it was 1880 ± 200 nM; in test [2] (setting [4]), above 100000 nM. Further, the “PI (IC50 dark/IC50 irradiation 740 nm)” value in test [2] (MCA205) is at least 53.
